Experimental data taken from patent US20150038707A1, “PROCESS FOR MAKING CGRP RECEPTOR ANTAGONISTS” (Merck Sharp & Dohme Corp., priority 2012, published 2015).

Tests used:
[1] = test system: Ae. aegypti Isla mujeres strain (metabolically pyrethroid resistant); assay: Toxicity assay on treated netting (Example 7), Isla mujeres strain; assay type: in vivo
Method: (§1) Several compounds were tested to determine their toxic effect on Ae. aegypti mosquitoes. Three mosquito strains were tested—Houston which is pyrethroid susceptible, That which is pyrethroid tolerant and Isla Mujer which is metabolically pyrethroid resistant.
(§2) The toxicity assay involved a single chamber to which treated netting was added. Twenty (20) mosquitoes were transferred to the chamber. After 1 hour, the number of knocked down mosquitoes was recorded and all mosquitoes were transferred to holding cartoons. The mosquitoes were given a 10% sucrose-soaked cotton ball and returned to the insectary. Mortaility was measured after 24 hours. A control assay using acetone-treated netting was used. Six replicates were performed at each treatment concentration.

[2] = test system: Ae. aegypti Houston strain (pyrethroid susceptible); assay: Toxicity assay on treated netting (Example 7), Houston strain; assay type: in vivo
Method: as §1, §2

[3] = test system: female Aedes aegypti (Thailand strain) mosquitoes; assay: Contact irritancy and spatial repellency screening (Example 4); assay type: in vivo; settings: Dosage 25 nmol/cm^2; mapped with 3000 other compounds
Method: (§3) Four compounds of formula (I) were tested for contact irritancy (i.e., movement away from the source after physical contact) at low doses on female Aedes aegypti (Thailand strain) mosquitoes. The contact irritant response was determined by use of the contact irritant assay disclosed by Grieco et al. in “A New Classification System for the Actions of IRS Chemicals Traditionally Used for Malaria Control,” Plos One, Issue 8 (2007) (available at www.plosone.org). The assay used was a cylindrical assembly that included a metal treatment end to which 10 mosquitoes were introduced and a clear receiving chamber. The treatment end included a netting strip (nylon organdy) that was treated with the insecticide of interest at the relevant dose. A butterfly valve separated the treatment end from the remainder of the assembly.
(§4) The four compounds of formula I described in Example 2 were tested for spatial repellency (directed movement away from the chemical source without the insect making physical contact with the treated surface) at low doses on female Aedes aegypti (Thailand strain) mosquitoes. The spatial repellency response was determined by use of the spatial repellency assay disclosed by Grieco et al. in “A New Classification System for the Actions of IRS Chemicals Traditionally Used for Malaria Control” in Plos One, Issue 8 (2007) (available at www.plosone.org) which is incorporated herein by reference for all relevant and consistent purposes. The assay used was a cylindrical assembly that included a treatment chamber at one end and a control chamber at the other end. The treatment chamber included a netting strip (nylon organdy) that was treated with the insecticide of interest at the relevant dose. The treatment chamber and control chamber were connected by a clear cylinder and were separated from the clear cylinder by butterfly valves. Twenty (20) mosquitoes were introduced into the clear central chamber and the butterfly valves were opened after 30 seconds. After 10 minutes, the valves were closed and the number of mosquitoes in each chamber was counted.
Dosage was 25 nmol/cm^2. Several known compounds were also mapped for comparison—alphacypermethrin, cypermethrin, propoxur, bendiocarb, permethrin, SS220, DDT, deet and chlorpyrifos.

[4] = test system: female Aedes aegypti (Thailand strain) mosquitoes; assay: Spatial repellency assay on mosquitoes (Example 3); assay type: in vivo; settings: netting treated at 0.0025-2.5 nmol/cm^2
Method: as §4
The compositions were applied to the net strips by the same methods and at the same concentrations as described in Example 2 above. […]

[5] = test system: Ae. Aegypti, That strain (pyrethroid tolerant); assay: Contact irritancy on pyrethroid tolerant mosquitoes (Example 5); assay type: in vivo
Method: as §3
(§5) Each composition was applied to the netting strip at a varied dose via a 1.5 ml acetone solution. Four (4) treatment concentrations were used—0.0025 nmol/cm^2, 0.025 nmol/cm^2, 0.25 nmol/cm^2 and 2.5 nmol/cm^2. Netting was allowed to dry for 15 minutes prior to placement in the cylinder. Control assays were performed with netting treated with acetone only.
(§6) For each run, 10 mosquitoes were transferred into the treatment end of the assembly and, after 30 seconds, the butterfly valve was opened. The valve was closed after 10 minutes and the number of mosquitoes in the clear end (i.e., the number of escaped mosquitoes) was tested.
(§7) The contact irritancy protocol of Example 2 was used to determine contact irritancy against mosquitoes (Ae. Aegypti) that had acquired metabolic resistance against pyrethroids. Alphacypermethrin and transfluthrin were also tested. Three mosquito strains were tested—Houston which is pyrethroid susceptible, That which is pyrethroid tolerant and Isla Mujer which is metabolically pyrethroid resistant.

[6] = test system: female Aedes aegypti (Thailand strain) mosquitoes; assay: Contact irritancy assay on mosquitoes (Example 2); assay type: in vivo; settings: netting treated at 0.0025-2.5 nmol/cm^2; 10 minutes
Method: as §3, §5, §6

[7] = test system: Ae. aegypti Thai strain (pyrethroid tolerant); assay: Toxicity assay on treated netting (Example 7), Thai strain; assay type: in vivo
Method: as §1, §2

[8] = test system: Ae. Aegypti, Isla Mujer strain (metabolically pyrethroid resistant); assay: Contact irritancy on metabolically resistant mosquitoes (Example 5); assay type: in vivo
Method: as §3, §5, §6, §7

[9] = test system: Ae. Aegypti strains Houston, That and Isla Mujer; assay: Spatial repellency on metabolically resistant mosquitoes (Example 6); assay type: in vivo
Method: as §4
as §7, with “spatial repellency” for “contact irritancy”, “3” for “2”, “DDT” for “Alphacypermethrin”

An. Vestitipennis = settings: stated as identical to night one of compound 1405; cited from earlier work
[10] = Dose 0.025 nm/cm^2, Time 1 hour
[11] = Dose 0.025 nm/cm^2, Time 24 hours
[12] = Dose 0.05 nm/cm^2, Time 24 hours
[13] = Dose 0.0725 nm/cm^2, Time 1 hour
[14] = Dose 0.0725 nm/cm^2, Time 24 hours
[15] = Dose 0.1 nm/cm^2, Time 24 hours
[16] = Dose 0.125 nm/cm^2, Time 1 hour
[17] = Dose 0.125 nm/cm^2, Time 24 hours
[18] = Dose 0.2 nm/cm^2, Time 24 hours
[19] = Dose 0.25 nm/cm^2, Time 24 hours
[20] = Dose 2.5 nm/cm^2, Time 24 hours

Question: What does the source list for `CC1(C)C(C=C(F)F)C1C(=O)OCc1ccc(F)c(C(F)(F)F)c1F` (stereo not shown) [Compound 1403]?
Answer: Isla mujeres (% dead (SE)) [1, 10]: 0%; Isla mujeres (% dead (SE)) [1, 11]: 1.58%; Isla mujeres (% dead (SE)) ([1]; Dose 0.05 nm/cm^2, Time 1 hour): 0%; Isla mujeres (% dead (SE)) [1, 12]: 5.93%; Isla mujeres (% dead (SE)) [1, 13]: 0%; Isla mujeres (% dead (SE)) [1, 14]: 3.70%; Isla mujeres (% dead (SE)) ([1]; Dose 0.1 nm/cm^2, Time 1 hour): 0%; Isla mujeres (% dead (SE)) [1, 15]: 5.00%; Isla mujeres (% dead (SE)) [1, 16]: 0%; Isla mujeres (% dead (SE)) [1, 17]: 6.00%; Isla mujeres (% dead (SE)) ([1]; Dose 0.2 nm/cm^2, Time 1 hour): 70%; Isla mujeres (% dead (SE)) [1, 18]: 20%; Isla mujeres (% dead (SE)) ([1]; Dose 0.25 nm/cm^2, Time 1 hour): 100%; Isla mujeres (% dead (SE)) [1, 19]: 100%; Isla mujeres (% dead (SE)) ([1]; Dose 2.5 nm/cm^2, Time 1 hour): 100%; Isla mujeres (% dead (SE)) [1, 20]: 100%; toxicity to resistant populations compared with standard compounds ([1]; summary of Table 2): more toxic to resistant populations than permethrin, matfluthrin and transfluthrin; Houston (% dead (SE)) [2, 10]: 11.76%; Houston (% dead (SE)) [2, 11]: 15.57%; Houston (% dead (SE)) ([2]; Dose 0.05 nm/cm^2, Time 1 hour): 51.3%; Houston (% dead (SE)) [2, 12]: 41.18%; Houston (% dead (SE)) [2, 13]: 100%; Houston (% dead (SE)) [2, 14]: 100%; Houston (% dead (SE)) ([2]; Dose 0.1 nm/cm^2, Time 1 hour): 100%; Houston (% dead (SE)) [2, 15]: 100%; Houston (% dead (SE)) [2, 16]: 100%; Houston (% dead (SE)) [2, 17]: 100%; Houston (% dead (SE)) ([2]; Dose 0.2 nm/cm^2, Time 1 hour): 100%; Houston (% dead (SE)) [2, 18]: 100%; Houston (% dead (SE)) ([2]; Dose 0.25 nm/cm^2, Time 1 hour): 100%; Houston (% dead (SE)) [2, 19]: 100%; Houston (% dead (SE)) ([2]; Dose 2.5 nm/cm^2, Time 1 hour): 100%; Houston (% dead (SE)) [2, 20]: 100%; contact irritancy and spatial repellency relative to screened compounds (FIG. 3) [3]: superior contact irritancy and spatial repellency relative to most screened compounds; spatial repellency, dose compared with DDT (FIG. 2) [4]: showed repellency at a lower dose than DDT; contact irritancy, tolerant strain (FIG. 4) [5]: contact irritants for tolerant strains; contact irritancy (FIG. 1) [6]: showed contact irritancy at relatively low doses; Thai (% dead (SE)) [7, 10]: 15%; Thai (% dead (SE)) [7, 11]: 0%; Thai (% dead (SE)) ([7]; Dose 0.25 nm/cm^2, Time 1 hour): 100%; Thai (% dead (SE)) [7, 19]: 100%; Thai (% dead (SE)) ([7]; Dose 2.5 nm/cm^2, Time 1 hour): 100%; Thai (% dead (SE)) [7, 20]: 100%; contact irritancy, resistant strain (FIG. 4) [8]: effective in resistant strains; spatial repellency, all strains (FIG. 5) [9]: spatial repellants for all strains

Question: For `Clc1ccc(C(c2ccc(Cl)cc2)C(Cl)(Cl)Cl)cc1` [DDT, dichlorodiphenyltrichloroethane], which “reduction in entering populations observed with DDT” value (An. Vestitipennis) is on record?
Answer: The value was 97%.
